Consider 17 compounds from ChEMBL document CHEMBL1201862, “PubChem BioAssay data set” (2004).

The nature of experiment [1]: HEK-293T viability loss after treatment – luminescence, T-cell screen hits, cytotoxicity control for TCR NF-kB inhibitor project, dose response (AID 489026).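 Note: cells exposed to compound about 14 hours before the viability readout.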 It counts as functional, cell-based.
Another experiment has as its system Streptococcus. In words: GAS UMAA2166 growth inhibition – luminescence, BacTiterGlo, counter-screen for streptokinase expression inhibitor project, dose response (AID 1915).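 Note: potency for reduction of bacterial viability or growth.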 It counts as functional, organism-based.
The subject of experiment [2] is Streptococcus sp. 'group A'. In words: Streptococcus pyogenes SK(-)GAS viability under kanamycin – luminescence, BacTiterGlo, confirmation, counter-screen for streptokinase expression inhibitor project, dose response (AID 1900). It counts as functional, organism-based.
A further experiment addresses T1, Streptokinase A (Streptococcus pyogenes serotype M1, UniProt P10520).
T1 sequence (P10520 whole entry): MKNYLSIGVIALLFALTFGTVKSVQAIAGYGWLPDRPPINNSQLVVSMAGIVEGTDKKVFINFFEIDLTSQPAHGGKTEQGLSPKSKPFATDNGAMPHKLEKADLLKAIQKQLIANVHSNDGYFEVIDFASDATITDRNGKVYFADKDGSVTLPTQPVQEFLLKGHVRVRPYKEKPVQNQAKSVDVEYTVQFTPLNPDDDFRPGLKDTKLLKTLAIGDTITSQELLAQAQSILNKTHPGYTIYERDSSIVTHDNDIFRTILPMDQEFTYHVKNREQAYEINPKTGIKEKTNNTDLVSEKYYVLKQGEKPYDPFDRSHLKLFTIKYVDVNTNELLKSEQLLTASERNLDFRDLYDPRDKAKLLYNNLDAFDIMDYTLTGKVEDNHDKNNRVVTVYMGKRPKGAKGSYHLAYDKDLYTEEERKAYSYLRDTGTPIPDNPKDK
The experiment can be described thus: viability-normalized secreted streptokinase activity reduction – plasminogen activation absorbance, OD405, dose response (AID 1914).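 Note: secreted streptokinase activity via plasminogen activation per viability signal from cell pellet.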 It counts as functional, Streptococcus pyogenes M1 GAS.

The nature of experiment [3]: viability of uninfected HEp-2 cells – cell-based, HTS, cytotoxicity control for RSV inhibitor project, dose response (AID 2410). It counts as functional. Conditions: human respiratory syncytial virus.
Experiment [4] can be described thus: Luminescence Cell-Based Dose Response HTS to Identify Inhibitors of 5'UTR Stem-Loop Driven Prion Protein mRNA Translation in H4 Neuroglioblastoma Cells. [Related pubchem assays: 1827 (Project Summary), 1813 (Primary HTS)]. It counts as functional.
The nature of experiment [5]: DRD fibroblast viability loss – cell-based, non-viral oncogenic, luminescence, dose response (AID 1934). To be noted: Homo sapiens. It counts as functional.
In experiment [6] the test system is BJ. In words: cells. Conditions: Homo sapiens. It counts as functional, cell-based.
Experiment [7] in a line: luciferase reporter signal suppression in cells – H4 neuroglioma cells, luminescence, dose response (AID 1990). It counts as functional, cell-based.
In experiment [8] the test system is BJ. The experiment can be described thus: BJ-TERT fibroblast viability loss – cell-based, RAS-independent, luminescence, dose response (AID 1933). It counts as functional. To be noted: Homo sapiens.
In experiment [9] the test system is BJ. In words: BJ-TERT-LT-ST fibroblast viability loss – cell-based, RAS-independent, luminescence, dose response (AID 1935).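 Note: BJ fibroblasts immortalized with TERT plus LT and ST oncogenes.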 It counts as functional. To be noted: Homo sapiens.
The target of experiment [10] is T2, Alkaline phosphatase, tissue-nonspecific isozyme (Homo sapiens, UniProt P05186).
T2 sequence (P05186 whole entry): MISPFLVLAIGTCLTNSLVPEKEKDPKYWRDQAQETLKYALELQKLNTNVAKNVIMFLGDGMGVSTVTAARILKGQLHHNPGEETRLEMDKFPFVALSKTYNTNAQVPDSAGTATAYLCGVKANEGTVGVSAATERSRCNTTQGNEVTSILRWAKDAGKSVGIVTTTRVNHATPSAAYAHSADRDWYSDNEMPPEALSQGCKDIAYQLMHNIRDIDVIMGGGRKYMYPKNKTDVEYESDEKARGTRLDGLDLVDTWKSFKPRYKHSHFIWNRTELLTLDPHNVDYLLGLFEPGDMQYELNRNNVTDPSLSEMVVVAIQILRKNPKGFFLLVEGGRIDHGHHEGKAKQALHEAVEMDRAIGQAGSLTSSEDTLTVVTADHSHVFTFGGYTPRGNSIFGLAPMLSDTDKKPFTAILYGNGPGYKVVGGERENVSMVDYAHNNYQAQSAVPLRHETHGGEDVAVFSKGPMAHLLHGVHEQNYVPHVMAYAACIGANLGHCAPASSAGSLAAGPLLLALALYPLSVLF
In words: potency against alkaline phosphatase TNAP – biochemical, luminescent, dose response, SAR follow-up (AID 1056).

Experiment [11] concerns the target Glyceraldehyde-3-phosphate dehydrogenase (Homo sapiens, UniProt P04406).
Experiment [12] concerns the target T3, Short transient receptor potential channel 4 (Mus musculus, UniProt Q9QUQ5).
T3 sequence (Q9QUQ5 whole entry): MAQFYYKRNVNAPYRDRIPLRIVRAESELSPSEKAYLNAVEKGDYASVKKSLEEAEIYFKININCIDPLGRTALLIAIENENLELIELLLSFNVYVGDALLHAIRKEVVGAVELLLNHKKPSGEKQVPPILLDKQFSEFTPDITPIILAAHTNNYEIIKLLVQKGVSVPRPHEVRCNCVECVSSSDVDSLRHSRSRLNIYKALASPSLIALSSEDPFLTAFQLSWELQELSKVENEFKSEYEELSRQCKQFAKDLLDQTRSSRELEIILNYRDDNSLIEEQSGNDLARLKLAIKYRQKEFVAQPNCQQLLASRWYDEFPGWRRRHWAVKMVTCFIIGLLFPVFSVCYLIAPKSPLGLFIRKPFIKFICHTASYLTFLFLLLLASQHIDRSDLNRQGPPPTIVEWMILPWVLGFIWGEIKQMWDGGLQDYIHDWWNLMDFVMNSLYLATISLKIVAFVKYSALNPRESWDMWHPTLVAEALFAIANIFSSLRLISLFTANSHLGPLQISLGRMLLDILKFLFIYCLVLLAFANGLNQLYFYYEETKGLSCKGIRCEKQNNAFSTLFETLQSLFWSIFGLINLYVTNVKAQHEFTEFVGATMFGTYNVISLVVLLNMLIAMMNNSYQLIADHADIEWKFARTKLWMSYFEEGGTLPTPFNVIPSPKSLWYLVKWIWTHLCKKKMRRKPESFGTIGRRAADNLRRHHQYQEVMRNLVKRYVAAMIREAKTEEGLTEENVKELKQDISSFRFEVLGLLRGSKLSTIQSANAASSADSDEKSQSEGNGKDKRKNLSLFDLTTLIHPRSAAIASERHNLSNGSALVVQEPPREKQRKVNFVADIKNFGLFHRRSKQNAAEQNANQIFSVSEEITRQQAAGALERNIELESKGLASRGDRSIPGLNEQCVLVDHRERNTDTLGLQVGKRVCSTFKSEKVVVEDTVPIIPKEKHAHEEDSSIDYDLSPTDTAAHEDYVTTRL
In words: block of DAMGO-driven TRPC4 calcium entry – cell-based, HEK293 TRPC4/mu-opioid, Fluo-4 calcium, dose response (AID 434942).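 Note: potency of inhibitors blocking the TRPC4 calcium response.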 It counts as functional.

The subject of experiment [13] is Escherichia coli. The experiment can be described thus: microbe, parasite or virus in culture.
Experiment [14] deals with Glucose-6-phosphate 1-dehydrogenase (Homo sapiens, UniProt P11413). In words: inhibition of Homo sapiens G6PD, dose series – biochemical, fluorescence, selectivity assay for P. falciparum G6PD inhibitor project, dose response (AID 504792). It counts as functional.
Glucose-6-phosphate 1-dehydrogenase, sequence (P11413 whole entry, the tested form may be a part): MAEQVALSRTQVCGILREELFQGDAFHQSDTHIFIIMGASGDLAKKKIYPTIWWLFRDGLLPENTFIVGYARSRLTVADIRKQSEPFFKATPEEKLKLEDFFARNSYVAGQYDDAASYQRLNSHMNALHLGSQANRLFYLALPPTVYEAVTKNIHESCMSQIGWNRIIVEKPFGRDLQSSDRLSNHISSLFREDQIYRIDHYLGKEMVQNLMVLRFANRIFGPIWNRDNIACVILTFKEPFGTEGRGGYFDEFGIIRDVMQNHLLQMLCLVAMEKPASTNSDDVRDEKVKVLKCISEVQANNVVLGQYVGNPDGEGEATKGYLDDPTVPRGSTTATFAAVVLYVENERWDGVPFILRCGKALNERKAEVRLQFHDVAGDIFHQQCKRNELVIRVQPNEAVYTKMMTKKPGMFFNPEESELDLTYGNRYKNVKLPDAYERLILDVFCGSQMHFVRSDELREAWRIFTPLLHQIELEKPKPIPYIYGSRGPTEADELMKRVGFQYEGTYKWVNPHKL
Experiment [15] in a line: HIV-1 AD8 envelope cell-cell fusion blockers – cherry-pick, dose response (AID 652062).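 Note: luciferase signal from cell-cell fusion driven by HIV-1 clade B AD8 Env; potency is for inhibitors of fusion seen as a drop in luminescence.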 It counts as functional, cell-based.
The test system of experiment [16] is HEK293. The experiment can be described thus: cells. It counts as functional, cell-based. To be noted: Homo sapiens.
Experiment [17] relates to HEK293. The experiment can be described thus: inhibition of NOD1-driven NF-kB reporter – cell-based, luminescence, uHTS, primary screen (AID 1578). It counts as functional. To be noted: Homo sapiens.
Experiment [18] deals with HEK293. The experiment can be described thus: cells. It counts as functional, cell-based. To be noted: Homo sapiens. This is another data set of the same source.
Experiment [19] relates to HEK293. The experiment can be described thus: NOD2 signaling inhibitors in MDP-stimulated cells, cell-based, uHTS, luminescence (AID 2001). It counts as functional. To be noted: Homo sapiens.
A further experiment relates to Vero. The experiment can be described thus: cells. Conditions: Chlorocebus sabaeus. It counts as functional, cell-based.
The subject of experiment [20] is Escherichia coli. The experiment can be described thus: microbe, parasite or virus in culture. This is another data set of the same source.
The target in experiment [21] is T4, Rac GTPase-activating protein 1 (Homo sapiens, UniProt Q9H0H5).
T4 sequence (Q9H0H5 whole entry): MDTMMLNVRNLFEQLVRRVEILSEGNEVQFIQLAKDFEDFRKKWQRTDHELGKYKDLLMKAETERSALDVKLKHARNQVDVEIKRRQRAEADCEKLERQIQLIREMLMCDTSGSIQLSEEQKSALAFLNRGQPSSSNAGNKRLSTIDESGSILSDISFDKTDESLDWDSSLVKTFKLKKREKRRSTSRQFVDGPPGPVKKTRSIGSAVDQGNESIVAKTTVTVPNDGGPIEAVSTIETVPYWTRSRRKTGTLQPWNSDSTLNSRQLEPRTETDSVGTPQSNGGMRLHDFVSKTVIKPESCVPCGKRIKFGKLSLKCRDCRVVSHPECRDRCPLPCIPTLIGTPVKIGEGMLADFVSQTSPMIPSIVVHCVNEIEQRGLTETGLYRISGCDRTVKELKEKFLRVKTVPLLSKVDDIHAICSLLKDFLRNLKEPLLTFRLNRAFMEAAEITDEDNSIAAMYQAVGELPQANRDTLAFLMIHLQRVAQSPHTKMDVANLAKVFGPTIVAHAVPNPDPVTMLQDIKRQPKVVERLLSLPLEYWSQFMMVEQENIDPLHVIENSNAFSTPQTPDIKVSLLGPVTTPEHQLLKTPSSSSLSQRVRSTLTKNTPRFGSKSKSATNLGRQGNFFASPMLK
In words: blockers of MgcRacGAP-driven Rac1 GTP hydrolysis – biochemical, ADP Hunter fluorescence, primary and confirmatory, confirmation (AID 624330). It counts as functional.

Activity calls are given as the source filed them.

Glyceraldehyde-3-phosphate dehydrogenase, sequence (P04406 whole entry): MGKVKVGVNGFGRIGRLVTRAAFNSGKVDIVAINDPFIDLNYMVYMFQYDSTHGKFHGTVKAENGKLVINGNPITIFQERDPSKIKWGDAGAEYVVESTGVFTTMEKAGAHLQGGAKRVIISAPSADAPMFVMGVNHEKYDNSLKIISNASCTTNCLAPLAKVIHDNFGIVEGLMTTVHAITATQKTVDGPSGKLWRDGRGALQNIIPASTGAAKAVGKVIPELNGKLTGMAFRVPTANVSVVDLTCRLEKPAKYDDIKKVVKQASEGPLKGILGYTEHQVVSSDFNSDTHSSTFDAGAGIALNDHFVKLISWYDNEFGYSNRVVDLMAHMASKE

`Cc1ccc2[nH]c(-c3cccc(F)c3)cc(=O)c2c1`: the IC50 in experiment [1] was > 80 µM (inactive).
In the case of `Oc1ccccc1-c1nc2c3ccccc3c3ccccc3c2[nH]1`, the values for the EC50 (in the experiment on Streptococcus; in experiment [2]; at Streptokinase A) were 12 µM (active), 2.55 µM (active) and 4.11 µM (active), respectively. The IC50 in “cells” is 11 µM (active). Besides, the CC50 in [3] was 15.3 µM (active).
As for `COc1ccc(C2=NOC(C(=O)NCc3ccc(F)cc3)C2)cc1OC` (configuration not stated), the IC50 in experiment [1] is > 80 µM (inactive). For the same compound, the concentration giving a half-maximal response (EC50) in experiment [4] was > 120 µM (not active); in experiment [5], 18.3 µM (active); with BJ [6], 26 µM (active); in experiment [7], 11.2 µM (active); with BJ [8] it was 1.54 µM (inconclusive); in the experiment on BJ [9], 5.72 µM (inconclusive).
For `O=C1C2CC=CCC2C(=O)N1c1nc[nH]n1` (configuration not stated), the IC50 is > 100 µM (inactive) in [10] and > 100 µM (not active) in experiment [11].
As for `O=C(CSc1nc2ccccc2c(=O)n1CCCO)N1CCc2ccccc21`, in [12], the EC50 was 0.596 µM (active).
Turning to `Clc1ccc(-c2csc(-c3cccnc3)n2)s1`, the AC50 in the experiment with Escherichia coli [13] is 276 µM (active).
As for `c1ccc(OCc2nnc3n2N=C(c2ccccc2)CS3)cc1`, the IC50 in experiment [14] was > 80 µM (inactive).
As to `Cc1ccccc1Cn1c(=N)n(CC(O)c2ccco2)c2ccccc21` (configuration not stated), the EC50 in [12] is 0.668 µM (active).
With `COc1cccc(N2C(=O)C(Cl)=C(N3CCN(C/C=C/c4ccccc4)CC3)C2=O)c1`, the IC50 in [11] is > 50 µM (inconclusive).
Regarding `O=C(Nc1nc(-c2ccc3c(c2)OCO3)cs1)c1ccncc1`, the AC50 in experiment [15] was 4.67 µM (active). Also, the IC50 in the experiment on HEK293 [16] was 11 µM (active); with HEK293 [18], 4.5 µM (active); with HEK293 [19] it was 4.79 µM (active). The EC50 in the experiment with HEK293 [17] is 3.32 µM (active).
`CCCCc1nc2ccccc2c(N)c1CCC.O=C(O)c1cc([N+](=O)[O-])ccc1Cl`: the EC50 in experiment [12] was 1.19 µM (active).
With `CCOc1ccccc1NS(=O)(=O)c1c(C)noc1C`, in [14], the IC50 is > 80 µM (inactive).
As to `Cc1cc(NC(=O)C(C)SCC(=O)N(Cc2ccccc2)c2ccccc2)no1` (configuration not stated), the IC50 in the experiment “cells” is 39.6 µM (active); with Vero it was > 25 µM (active). Also, the CC50 in experiment [3] was 29.9 µM (active).
`Cn1c(C(=O)OCC(=O)NCC2CCCO2)cc2sccc21` (configuration not stated): the figures for the AC50 in the experiment on Escherichia coli [20] and in the experiment with Escherichia coli [13] were 25.8 µM (active) and 149 µM (active), respectively.
Turning to `C=CCOc1cccc(C(=O)N2CCCC(CCC(=O)NCc3ccccc3F)C2)c1` (configuration not stated), the AC50 in the experiment on Escherichia coli [13] is 41.3 µM (active).
Regarding `c1cc2c(cc1NC1CCCCCC1)OCO2`, the IC50 is 48.4 µM (active) in [21] and > 80 µM (inactive) in [14].
In the case of `C/C(Cn1nnc([N+](=O)[O-])n1)=N\NC(=O)c1ccc(O)cc1O`, the AC50 in the experiment with Escherichia coli [20] is 84.9 µM (active). Moreover, the IC50 in [14] was > 80 µM (inactive).
